The source of these data is patent publication US20090012152A1, “Use of Tetramic Acid Derivatives for Controlling Insects from the Genus of the Plane Lice (Sternorrhyncha)” (Bayer CropScience Aktiengesellschaft, priority 2005, published 2009).

Type in all cases: in vivo
Assay [1] has as its system Bemisia tabaci. Nature of the assay: Example 32: bell peppers treated against Bemisia tabaci. The following applies: larvae on leaves, % a.i.: imidacloprid 0.02, I-9, I-2, I-11 0.0144; for Kill (%) 7 d: 7 d after second treatment; for Kill (%) 14 d: 14 d after second treatment; for Kill (%) 22 d: 22 d after second treatment. How it is done: In three replications, plots of a size of 10 m^2 with bell peppers of the cultivar “Italiano” are treated against Bemisia tabaci. The application is carried out using a motor-operated knapsack sprayer. Here, the active compounds Example (I-9) (240 SC), Example (I-2) (60 SC) and Example (I-11) (60 SC) and the commercial standard imidacloprid (200 SL) are applied at the stated application rates. Three applications at an interval of 14 or 15 days are carried out, at an application rate of 1000 or 1100 l of water/ha.
Evaluation is carried out 7, 14 and 22 days after the second treatment by rating the kill of the animals (larvae) on the leaves.

In assay [2] the test system is Macrosiphum euphorbiae. Kind of assay: Example 43: aubergines treated against Macrosiphum euphorbiae. The settings on record: nymphs on leaves, % a.i.: imidacloprid 0.014, I-9, I-2, I-11 0.0144; for Kill (%) 7 d: 7 d after second treatment; for Kill (%) 14 d: 14 d after second treatment. How it is done:
In three replications, plots of a size of 10 m^2 with aubergines of the cultivar “F 100” are treated against Macrosiphum euphorbiae. The application is carried out using a knapsack sprayer operated with pressurized air. Here, the active compounds Example (I-9) (60 SC), Example (I-2) (60 SC) and Example (I-11) (60 SC) and the commercial standard imidacloprid (70 WG) are tested at the stated application rates. Three applications are carried out, at an interval of 7 or 8 days. The application rate is 1000 l of water/ha.
Evaluation is carried out 7 and 14 days after the second treatment by rating the kill of the nymphs on the leaves.

Assay [3] deals with Viteus vitifolii. Nature of the assay: Example 4: vines treated against Viteus vitifolii. The settings on record: 60 days after last of three treatments, on roots, imidacloprid drip irrigation 560 g/ha, I-4 0.0168%, I-9 0.0144% leaf spray. How it is done: In four replications, three in each case about 12-year-old vines of the cultivar “Auvemat” are treated against Viteus vitifolii. As commercial standard, imidacloprid is used at the recommended application rate by drip irrigation. The application of the active compounds is by spray application to the leaves using a knapsack operated with pressurized air. Here, the active compounds Example (I-4) (240 SC) and Example (I-9) (240 SC) are applied in a tank mix with 0.1% a.i. of rapeseed oil methyl ester (500 EW) at the stated amount. There are three applications on day 1, 2 and 15. The application rate is 1776 l of water/ha.
Evaluation is carried out 60 days after the last treatment by rating the kill on the roots in percent.

Assay [4] relates to Trioza erythreae. Nature of the assay: Example 8: orange trees treated against Trioza erythreae. The following applies: nymphs on branches, rate %: imidacloprid 0.004, I-4 0.0144; for Kill (%) 7 d: 7 d after first of two treatments; for Kill (%) 14 d: 14 d after first of two treatments; for Kill (%) 20 d: 20 d after first of two treatments. How it is done:
In three replications, about 2-year-old orange trees are treated against Trioza erythreae. The application is carried out using a knapsack sprayer operated with pressurized air. Here, the active compound Example (I-4) (240 SC) is tested in a tank mix with 0.2% a.i. of rapeseed oil methyl ester (500 EW) against the commercial standard imidacloprid (100 SL) at the stated application rates. The application rate is 540 l of water/ha. Two treatments are carried out, at an interval of 7 days.
Evaluation is carried out 7, 14 and 20 days after the first treatment by rating the kill of the nymphs on the branches.

Assay [5] has as its system Bemisia tabaci. Kind of assay: Example 33: cucumbers treated against Bemisia tabaci. The settings on record: nymphs on leaves, % a.i.: imidacloprid 0.144, I-4 0.084; for Kill (%) 7 d: 7 d after first of two treatments; for Kill (%) 11 d: 11 d after first of two treatments; for Kill (%) 21 d: 21 d after first of two treatments. How it is done: In four replications, plots of a size of 26 m^2 with cucumbers of the cultivar “Beta alpha” are treated against Bemisia tabaci. The application is carried out using a knapsack sprayer operated with pressurized air. Here, the active compound Example (I-4) (240 SC), in a tank mix with 0.1% a.i. of rapeseed oil methyl ester (500 EW), and the commercial standard imidacloprid (200 SC) are tested at the stated application rates. Two applications are carried out, at an interval of 10 days. The application rate is 1000 l of water/ha.
Evaluation is carried out 7, 11 and 21 days after the first treatment by rating the kill of the animals (nymphs) on leaves.

Assay [6] has as its system Trialeurodes vaporariorum. Nature of the assay: Example 34: tomatoes treated against Trialeurodes vaporariorum. The settings on record: larvae on leaves, % a.i.: imidacloprid 0.015, I-9 0.0144, I-4 0.0144. How it is done:
In three replications, plots of a size of 5 m^2 with tomatoes of the cultivar “Rio Grande” are treated against Trialeurodes vaporariorum. The application is carried out using a motor-operated knapsack apparatus. Here, the active compounds Example (I-9) (240 SC) and Example (I-4) (240 SC) and the commercial standard imidacloprid (200 SL) are tested at the stated application rates. The application rate is 1000 l of water/ha. Three applications are carried out, at an interval of 11 or 10 days.
Evaluation is in each case carried out 7 or 10 days after each treatment, by rating the kill of the larvae on the leaves.

Assay [7] has as its system Dysaphis plantaginea. Nature of the assay: Example 40: apple trees treated against Dysaphis plantaginea. The following applies: population on shoots, % a.i.: imidacloprid 0.007, I-9 0.0144, I-4 0.0144; for Kill (%) 14 d: 14 d after treatment; for Kill (%) 21 d: 21 d after treatment. How it is done:
In three replications, three about 22-year-old apple trees of the cultivar “Golden Delicious” are treated eradicatively against Dysaphis plantaginea and Aphis pomi. The application is carried out using a motor-operated barrow-mounted sprayer. Here, the active compounds Example (I-9) (240 SC) and Example (I-4) (240 SC) in the stated amount are tested against the commercial standard imidacloprid (200 SL), at the stated application rate. The application rate is 1200 l of water/ha.
Evaluation is carried out 14 d and 21 d after the treatment by rating the kill of the population on the shoots.

Assay [8] deals with Aphis gossypii. Kind of assay: Example 52: melons treated against Aphis gossypii. The settings on record: on shoots, g a.i./ha: imidacloprid 100, I-4 48; for Kill (%) 3 d: 3 d after treatment; for Kill (%) 7 d: 7 d after treatment. How it is done: In three replications, plots of a size of 15 m^2 with melons are treated against Aphis gossypii. The application is carried out using a knapsack sprayer operated with pressurized air. Here, the active compound Example (I-4) (240 SC), in a tank mix with 0.1% a.i. of rapeseed oil methyl ester (500 EW), and the standard imidacloprid (200 SL) are applied at the stated application rates. The application rate is 500 l of water/ha.
Evaluation is carried out 3 days and 7 days after the treatment by rating the kill of the animals on the shoots.

Turning to `CCOC(=O)OC1=C(c2cc(C)ccc2Br)C(=O)NC12CCC(OC)CC2` (centres unmarked) [Example (I-2)], in assay [1], the “Kill (%) 7 d” value is given as 84.7%, the “Kill (%) 14 d” value is on record as 92.6% and the “Kill (%) 22 d” value was 85.6%. In assay [2], the “Kill (%) 7 d” value stood at 99% and the “Kill (%) 14 d” value is 91%.

Turning to `CCOC(=O)OC1=C(c2cc(C)ccc2C)C(=O)NC12CCC(OC)CC2` (centres unmarked) [Example (I-4)], the “Kill (%)” value in assay [3] came to 55%. Moreover, in assay [4], the “Kill (%) 7 d” value amounted to 97.9%, the “Kill (%) 14 d” value is 98.9% and the “Kill (%) 20 d” value is 98.3%. In addition, in assay [5], the “Kill (%) 7 d” value is on record as 75%, the “Kill (%) 11 d” value was 87% and the “Kill (%) 21 d” value turned out to be 90%. In assay [6], the “Kill (%) 7 d after the 2nd treatment” value came out at 100%, the “Kill (%) 10 d after the 1st treatment” value is 81.9% and the “Kill (%) 10 d after the 3rd treatment” value turned out to be 94.3%. Further, in assay [7], the “Kill (%) 14 d” value is recorded as 99.3% and the “Kill (%) 21 d” value is 100%. Also, in assay [8], the “Kill (%) 3 d” value came out at 94.7% and the “Kill (%) 7 d” value worked out at 100%.

On to `O=[N+]([O-])NC1=NCCN1Cc1ccc(Cl)nc1` [imidacloprid, reference compound], for which, in assay [3], the “Kill (%)” value is given as 26%. Further, in assay [4], the “Kill (%) 7 d” value is 98.4%, the “Kill (%) 14 d” value worked out at 99.2% and the “Kill (%) 20 d” value is listed as 98.6%. For the same compound, in assay [1], the “Kill (%) 7 d” value is 75.8%, the “Kill (%) 14 d” value worked out at 67.2% and the “Kill (%) 22 d” value amounted to 69.4%. In assay [5], the “Kill (%) 7 d” value was found to be 89%, the “Kill (%) 11 d” value is given as 96% and the “Kill (%) 21 d” value was found to be 96%. In assay [6], the “Kill (%) 7 d after the 2nd treatment” value worked out at 88.4%, the “Kill (%) 10 d after the 1st treatment” value is 53.5% and the “Kill (%) 10 d after the 3rd treatment” value amounted to 67.5%. In addition, in assay [7], the “Kill (%) 14 d” value was found to be 97.6% and the “Kill (%) 21 d” value is recorded as 99.8%. In addition, in assay [2], the “Kill (%) 7 d” value came out at 100% and the “Kill (%) 14 d” value turned out to be 100%. Also, in assay [8], the “Kill (%) 3 d” value turned out to be 98.2% and the “Kill (%) 7 d” value came out at 100%.
